Measured values: ChEMBL document CHEMBL1833849, “Novel 4-azasteroidal N-glycoside analogues bearing sugar-like D ring: synthesis and anticancer activities” (2011)

How the values were obtained:
Format in all cases: functional
PC-3 = assay: Cytotoxicity against human PC3 cells assessed as growth inhibition after 3 days by MTT assay; details: PC-3, 72 h
HeLa = assay: Cytotoxicity against human HeLa cells assessed as growth inhibition after 3 days by MTT assay; details: 72 h
MCF7 = assay: Cytotoxicity against human MCF7 cells assessed as growth inhibition after 3 days by MTT assay; details: MCF7, 72 h
SK-N-SH = assay: Cytotoxicity against human SK-N-SH cells assessed as growth inhibition after 3 days by MTT assay; details: 72 h

Row | SMILES | GI50 (PC-3) | GI50 (HeLa) | GI50 (MCF7) | GI50 (SK-N-SH)
1 | C[C@]12CCC(=O)N[C@@H]1CC[C@@H]1[C@@H]2CC[C@]2(C)O[C@H](n3cnc4c(Cl)ncnc43)CC[C@@H]12 | 3.25 µM | 17.7 µM | 20.9 µM | 103 µM
2 | C[C@]12CCC(=O)N[C@@H]1CC[C@@H]1[C@@H]2CC[C@]2(C)O[C@H](n3cnc4c(Cl)nc(Cl)nc43)CC[C@@H]12 | 11.2 µM | 7.57 µM | 34.2 µM | 34.2 µM
3 | C[C@]12CCC(=O)N[C@@H]1CC[C@@H]1[C@@H]2CC[C@]2(C)O[C@H](n3cnc4c(NCc5ccccc5)ncnc43)CC[C@@H]12 | 20.6 µM | 129 µM | 136 µM | 133 µM
4 | C[C@]12CCC(=O)N[C@@H]1CC[C@@H]1[C@@H]2CC[C@]2(C)O[C@H](n3cnc4c(Cl)nc(F)nc43)CC[C@@H]12 | 3.76 µM | 13.3 µM | 16.7 µM | 10.7 µM
5 | CC(=O)O[C@H]1C(=O)[C@@]2(C)[C@H]([C@H](OC(=O)c3ccccc3)[C@]3(O)C[C@H](OC(=O)[C@H](O)[C@@H](NC(=O)c4ccccc4)c4ccccc4)C(C)=C1C3(C)C)[C@]1(OC(C)=O)CO[C@@H]1C[C@@H]2O [PACLITAXEL] | 1.46 µM | 2.82 µM | 1.07 µM | 2.19 µM
